Columns and labels:
[1] = molecular target: T1, angiotensin converting enzyme (Homo sapiens, UniProt P12821); test: Angiotensin converting enzyme activity in vitro in reference serum (Carmel et al 1979); type: biochemical; conditions: serial dilutions added to a reference serum; FIG. 2
T1 construct: from tissue
Procedure: The activity of angiotensin-converting enzyme was assayed according to Carmel et al (1979).
In order to determine if CPSSA reacts in a similar way to captopril, which inhibits the activity of angiotensin converting enzyme, serial dilutions of CPSSA were prepared.

[2] = molecular target: T2, papain (Carica papaya, UniProt P00784); test: SH modification of papain (residual enzyme activity, benzoyl arginine-p-nitro anilide hydrolysis); type: biochemical
T2 sequence (P00784 134-345): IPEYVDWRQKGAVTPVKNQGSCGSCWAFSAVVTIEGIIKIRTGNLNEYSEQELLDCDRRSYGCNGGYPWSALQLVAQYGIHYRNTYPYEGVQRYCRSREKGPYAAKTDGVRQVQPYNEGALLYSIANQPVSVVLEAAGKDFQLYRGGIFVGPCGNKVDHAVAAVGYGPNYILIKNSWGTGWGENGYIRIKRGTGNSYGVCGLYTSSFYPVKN
Procedure: CPSSA (0–5 mM) modification of activated and gel-filtered papain was conducted at room temperature in 50 mM sodium acetate, 2 mM EDTA pH 6.1. The inhibited papain was reactivated with 5 mM reduced glutathione.
Activated papain was mixed with various concentrations of CPSSA for 10 minutes at room temperature in 50 mM sodium acetate, 2 mM EDTA buffer, pH 6.5. The residual enzyme activity was measured by monitoring the rate of hydrolysis of the substrate benzoyl arginine-p-nitro anilide at 382 nm.

[3] = tested on: Sprague-Dawley rats fed fructose-rich diet; test: Fructose-rich diet rat model (Reaven's model): blood pressure, serum triglycerides, insulin, body weight; type: in vivo; conditions: for effect on serum insulin levels: FIG. 5
Procedure: In the present study, the effects of CPSSA and captopril on blood pressure, as well as serum levels of triglycerides and insulin, were compared. RESULTS
Model Sprague-Dawley male rates, five rats/group, 220–240 g body weight, were fed with a fructose-rich diet for three weeks, followed by two weeks of treatment with either CPSSA or captopril predissolved in the drinking water in doses of CPSSA of 40 and 57 mg/kg and 80 mg/kg captopril, together with the fructose-rich diet. The control group was fed only the fructose-rich diet. Measurements of body weight, blood pressure, serum levels of triglycerides and insulin were conducted at 0, 3, and 5 weeks into the treatment.

[4] = two weeks in drinking water, CPSSA 40 and 57 mg/kg, captopril 80 mg/kg

T1 sequence (P12821 30-1232 limits assumed): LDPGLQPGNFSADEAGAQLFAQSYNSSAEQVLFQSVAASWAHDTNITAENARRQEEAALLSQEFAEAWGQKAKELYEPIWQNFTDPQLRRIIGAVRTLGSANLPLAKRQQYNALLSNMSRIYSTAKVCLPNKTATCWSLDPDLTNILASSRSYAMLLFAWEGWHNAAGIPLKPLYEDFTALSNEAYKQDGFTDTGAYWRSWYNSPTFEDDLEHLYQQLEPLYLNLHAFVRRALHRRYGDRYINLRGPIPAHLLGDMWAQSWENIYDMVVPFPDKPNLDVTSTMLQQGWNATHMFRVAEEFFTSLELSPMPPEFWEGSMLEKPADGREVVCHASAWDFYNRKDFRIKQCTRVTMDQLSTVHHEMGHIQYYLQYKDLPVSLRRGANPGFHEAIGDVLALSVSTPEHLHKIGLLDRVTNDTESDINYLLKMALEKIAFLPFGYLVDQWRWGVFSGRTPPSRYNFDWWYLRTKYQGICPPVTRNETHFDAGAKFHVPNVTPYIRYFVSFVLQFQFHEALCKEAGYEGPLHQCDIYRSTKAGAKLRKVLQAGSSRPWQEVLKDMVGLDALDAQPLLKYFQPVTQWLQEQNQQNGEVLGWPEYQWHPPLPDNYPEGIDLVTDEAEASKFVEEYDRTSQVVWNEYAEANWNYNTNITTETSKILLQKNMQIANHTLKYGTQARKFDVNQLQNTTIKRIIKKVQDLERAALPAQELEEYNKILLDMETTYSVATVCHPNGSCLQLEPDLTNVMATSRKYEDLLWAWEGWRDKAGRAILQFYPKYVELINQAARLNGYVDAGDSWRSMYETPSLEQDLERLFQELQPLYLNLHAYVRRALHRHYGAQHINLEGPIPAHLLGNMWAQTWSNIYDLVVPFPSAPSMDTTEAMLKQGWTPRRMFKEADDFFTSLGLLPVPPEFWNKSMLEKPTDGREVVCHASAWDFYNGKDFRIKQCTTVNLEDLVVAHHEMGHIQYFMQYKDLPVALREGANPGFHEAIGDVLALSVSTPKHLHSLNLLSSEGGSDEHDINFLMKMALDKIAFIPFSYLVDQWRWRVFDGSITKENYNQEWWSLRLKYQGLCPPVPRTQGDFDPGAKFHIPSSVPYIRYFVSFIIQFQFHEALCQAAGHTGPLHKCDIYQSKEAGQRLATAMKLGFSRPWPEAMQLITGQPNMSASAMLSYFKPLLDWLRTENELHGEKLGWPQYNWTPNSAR

| SMILES | ACE inhibition profile compared with captopril [1] | inhibition of angiotensin converting enzyme activity [1] | reactivation of inactivated papain ([2]; 5 mM reduced glutathione) | papain enzyme activity after incubation ([2]; 10 minutes at room temperature, 50 mM sodium acetate, 2 mM EDTA, CPSSA 0-5 mM, FIG. 1) | degree of inhibition of papain ([2]; various concentrations of CPSSA, FIG. 1) | activity in decreasing levels of triglycerides compared with captopril ([3]; CPSSA 40 and 57 mg/kg vs captopril 80 mg/kg, FIG. 4) | effect on body weight [3, 4] | effect on blood pressure ([3]; two weeks in drinking water, CPSSA 40 and 57 mg/kg, captopril 80 mg/kg, FIG. 3) | effect on serum levels of triglycerides ([3]; two weeks in drinking water, CPSSA 40 and 57 mg/kg, captopril 80 mg/kg, FIG. 4) | effect on serum insulin levels [3, 4] |
| --- | --- | --- | --- | --- | --- | --- | --- | --- | --- | --- |
| C=CCSSC[C@H](C)C(=O)N1CCC[C@H]1C(=O)O [CPSSA, S-allylmercaptocaptopril] | essentially does not differ from the inhibition profile obtained with captopril | concentration dependant | could be restored by reduced glutathione | significant decrease of enzyme activity | concentration dependent | more active than captopril | No effects on body weight | significantly decreased blood pressure | reduced the serum levels of triglycerides | decreased serum insulin levels to normal values |
| C[C@H](CS)C(=O)N1CCC[C@H]1C(=O)O [captopril, D-3-mercapto-2-methylpropanoyl-L-proline] |  |  |  |  |  |  | No effects on body weight |  |  | decreased serum insulin levels to normal values |
